Test results as given in the supplement of paper PMC10307832.

Tests used:
Assay in all cases: relative viability (nuclei count vs DMSO), 5 days (fraction); higher = more cells survive
RAF265 = compound: Cn1c(Nc2ccc(C(F)(F)F)cc2)nc2cc(Oc3ccnc(-c4ncc(C(F)(F)F)[nH]4)c3)ccc21 [RAF265]
In short: (§1)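 Viability was read as treated-well nuclei divided by vehicle-well nuclei, using the median across plates. Lung cancer cell lines in 1536-well plates were kept overnight at 37 °C, pinned with five √10-spaced library-drug doses, and after 5 days were Hoechst-stained, imaged at 4× and counted in MetaXpress. Plates passed only with control CV below 25% and at least one doubling.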

IPA-3 = compound: C1=CC=C2C(=C1)C=CC(=C2SSC3=C(C=CC4=CC=CC=C43)O)O [IPA-3]
In short: as §1

Doramapimod = compound: Cc1ccc(-n2nc(C(C)(C)C)cc2NC(=O)Nc2ccc(OCCN3CCOCC3)c3ccccc23)cc1 [Doramapimod]
In short: as §1

IPA-3 + Trametinib = compound: C1=CC=C2C(=C1)C=CC(=C2SSC3=C(C=CC4=CC=CC=C43)O)O [IPA-3] + CC(=O)Nc1cccc(-n2c(=O)n(C3CC3)c(=O)c3c(Nc4ccc(I)cc4F)n(C)c(=O)c(C)c32)c1 [Trametinib] (partner 0.02 µM)
In short: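 One day after seeding in 1536-well plates, lung cancer cell lines were dosed by pin tool. Dosing was either single-drug or a fixed anchor-drug dose plus five library-drug doses (not always all listed) in √10 steps. After 5 days, nuclei were stained in one fix-and-stain step and counted on 4× images, and relative viability is the nuclei count of treated wells over that of vehicle wells, given as the median of duplicate plates.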

Row | Cell Line | relative viability (RAF265; 0.01 µM) | relative viability (RAF265; 0.03162 µM) | relative viability (RAF265; 0.1 µM) | relative viability (RAF265; 0.3162 µM) | relative viability (RAF265; 1 µM) | relative viability (IPA-3; 0.2 µM) | relative viability (IPA-3; 0.6325 µM) | relative viability (IPA-3; 2 µM) | relative viability (IPA-3; 6.325 µM) | relative viability (IPA-3; 20 µM) | relative viability (Doramapimod; 0.02 µM) | relative viability (Doramapimod; 0.06325 µM) | relative viability (Doramapimod; 0.2 µM) | relative viability (Doramapimod; 0.6325 µM) | relative viability (Doramapimod; 2 µM) | relative viability (IPA-3 + Trametinib; first compound 0.2 µM) | relative viability (IPA-3 + Trametinib; first compound 0.6325 µM) | relative viability (IPA-3 + Trametinib; first compound 2 µM) | relative viability (IPA-3 + Trametinib; first compound 6.325 µM) | relative viability (IPA-3 + Trametinib; first compound 20 µM)
1 | HCC-44 | 0.971 | 0.919 | 1.02 | 1.05 | 0.992 | 0.953 | 0.922 | 0.998 | 0.899 | 0.968 | 1.03 | 1.1 | 1.1 | 0.84 | 0.983 | 1.09 | 1.04 | 1.13 | 0.984 | 1.05
2 | NCI-H2342 | 0.937 | 1.06 | 1.04 | 0.895 | 0.85 | 1.07 | 1.08 | 0.975 | 1.11 | 1.14 | 1.05 | 0.918 | 0.998 | 1.09 | 0.933 | 0.74 | 0.734 | 0.955 | 0.872 | 0.937
3 | ChaGo-K-1 | 0.977 | 1.04 | 1.01 | 0.865 | 0.789 | 1.05 | 0.96 | 0.96 | 1.06 | 1.07 | 0.988 | 1.09 | 0.983 | 0.975 | 0.916 | 0.979 | 0.886 | 0.917 | 0.884 | 1
4 | COR-L23 | 1.19 | 0.92 | 0.879 | 0.74 | 0.626 | 1.15 | 0.912 | 1.11 | 0.923 | 0.982 | 1.01 | 1.08 | 0.981 | 0.964 | 0.949 | 0.743 | 0.557 | 0.654 | 0.579 | 0.21
5 | EMC-BAC-2 | 0.94 | 0.885 | 0.639 | 0.467 | 0.236 | 1.02 | 1.05 | 1 | 1.02 | 1.09 | 1 | 1.2 | 1.01 | 0.954 | 0.863 | 0.938 | 0.843 | 0.829 | 0.914 | 0.812
6 | LCLC-103H | 1.01 | 1.05 | 0.919 | 0.78 | 0.72 | 1.12 | 0.962 | 0.876 | 0.99 | 1.07 | 1.02 | 1.01 | 0.887 | 0.988 | 0.929 | 0.693 | 0.686 | 0.718 | 0.687 | 0.675
7 | LK-2 | 0.963 | 1 | 1.09 | 1.07 | 0.714 | 1.06 | 1.03 | 0.995 | 1.01 | 1.19 | 0.909 | 0.981 | 0.926 | 0.741 | 0.849 | 0.904 | 0.752 | 0.721 | 0.846 | 0.934
